Values joined by “and” are separate entries in the source; they are usually repeats but may differ in a detail not shown here. Identical values can stand only once. Numbers after ± are expanded uncertainties.
Settings: transient hot wire

O=C(C(F)(F)C(F)(F)F)C(F)(C(F)(F)F)C(F)(F)F [dodecafluoro-2-methylpentan-3-one]
Settings | thermal conductivity
302.17 K, 68802 kPa, Liquid | 0.07801 ± 0.0016 W/m/K
302.17 K, 68805 kPa, Liquid | 0.07819 ± 0.0016 W/m/K
302.18 K, 185 kPa, Liquid | 0.05684 ± 0.0012 W/m/K
302.19 K, 184 kPa, Liquid | 0.05683 ± 0.0012 W/m/K
302.19 K, 38646 kPa, Liquid | 0.07042 ± 0.0014 W/m/K
302.19 K, 38653 kPa, Liquid | 0.07047 ± 0.0014 W/m/K
302.2 K, 4505 kPa, Liquid | 0.05895 ± 0.0012 W/m/K
302.2 K, 4509 kPa, Liquid | 0.05896 ± 0.0012 W/m/K
302.2 K, 22376 kPa, Liquid | 0.06575 ± 0.0014 W/m/K
302.2 K, 22378 kPa, Liquid | 0.06574 ± 0.0014 W/m/K
302.21 K, 181 kPa, Liquid | 0.05683 ± 0.0012 W/m/K and 0.05685 ± 0.0012 W/m/K
302.21 K, 9730 kPa, Liquid | 0.06078 ± 0.0013 W/m/K
302.21 K, 9731 kPa, Liquid | 0.06057 ± 0.0013 W/m/K
302.22 K, 29975 kPa, Liquid | 0.06769 ± 0.0014 W/m/K and 0.06766 ± 0.0014 W/m/K
302.23 K, 38 kPa, Gas | 0.01171 ± 0.001 W/m/K
302.24 K, 34 kPa, Gas | 0.01182 ± 0.0014 W/m/K
302.24 K, 36 kPa, Gas | 0.01189 ± 0.00074 W/m/K
302.25 K, 34 kPa, Gas | 0.01189 ± 0.0014 W/m/K
302.26 K, 4429 kPa, Liquid | 0.05855 ± 0.0012 W/m/K
302.26 K, 4432 kPa, Liquid | 0.05857 ± 0.0012 W/m/K
302.26 K, 15648 kPa, Liquid | 0.06339 ± 0.0013 W/m/K
302.26 K, 22430 kPa, Liquid | 0.06528 ± 0.0014 W/m/K
302.27 K, 15647 kPa, Liquid | 0.06339 ± 0.0013 W/m/K
302.27 K, 22437 kPa, Liquid | 0.06518 ± 0.0013 W/m/K
302.29 K, 121 kPa, Liquid | 0.05692 ± 0.0012 W/m/K
302.3 K, 121 kPa, Liquid | 0.057 ± 0.0012 W/m/K
302.31 K, 92 kPa, Liquid | 0.05649 ± 0.0012 W/m/K
302.31 K, 97 kPa, Liquid | 0.05641 ± 0.0012 W/m/K
302.35 K, 9934 kPa, Liquid | 0.0612 ± 0.0013 W/m/K
302.35 K, 9940 kPa, Liquid | 0.06118 ± 0.0013 W/m/K
302.46 K, 4504 kPa, Liquid | 0.05889 ± 0.0012 W/m/K
302.47 K, 4505 kPa, Liquid | 0.05889 ± 0.0012 W/m/K
302.48 K, 184 kPa, Liquid | 0.05681 ± 0.0012 W/m/K
302.49 K, 184 kPa, Liquid | 0.05679 ± 0.0012 W/m/K
302.5 K, 181 kPa, Liquid | 0.05679 ± 0.0012 W/m/K and 0.05678 ± 0.0012 W/m/K
302.52 K, 15868 kPa, Liquid | 0.06291 ± 0.0013 W/m/K
302.53 K, 15872 kPa, Liquid | 0.06281 ± 0.0013 W/m/K
302.54 K, 68548 kPa, Liquid | 0.07804 ± 0.0016 W/m/K
302.54 K, 68549 kPa, Liquid | 0.07799 ± 0.0016 W/m/K
302.57 K, 121 kPa, Liquid | 0.05687 ± 0.0012 W/m/K and 0.05695 ± 0.0012 W/m/K
302.58 K, 58446 kPa, Liquid | 0.0756 ± 0.0015 W/m/K
302.59 K, 58445 kPa, Liquid | 0.07563 ± 0.0015 W/m/K
302.6 K, 34 kPa, Gas | 0.01198 ± 0.0011 W/m/K
302.61 K, 36 kPa, Gas | 0.01183 ± 0.0016 W/m/K
302.61 K, 38 kPa, Gas | 0.01193 ± 0.00074 W/m/K
302.61 K, 68790 kPa, Liquid | 0.07804 ± 0.0016 W/m/K
302.61 K, 68801 kPa, Liquid | 0.07795 ± 0.0016 W/m/K
302.63 K, 48154 kPa, Liquid | 0.07294 ± 0.0015 W/m/K
302.63 K, 48162 kPa, Liquid | 0.07285 ± 0.0015 W/m/K
302.65 K, 15984 kPa, Liquid | 0.06295 ± 0.0013 W/m/K
302.65 K, 15986 kPa, Liquid | 0.06304 ± 0.0013 W/m/K
302.68 K, 38648 kPa, Liquid | 0.07035 ± 0.0014 W/m/K
302.69 K, 38638 kPa, Liquid | 0.07035 ± 0.0014 W/m/K
302.72 K, 9724 kPa, Liquid | 0.06082 ± 0.0013 W/m/K
302.72 K, 9726 kPa, Liquid | 0.06095 ± 0.0013 W/m/K
302.73 K, 29973 kPa, Liquid | 0.06771 ± 0.0014 W/m/K
302.74 K, 29982 kPa, Liquid | 0.06772 ± 0.0014 W/m/K
302.78 K, 4430 kPa, Liquid | 0.0586 ± 0.0012 W/m/K
302.79 K, 4428 kPa, Liquid | 0.05856 ± 0.0012 W/m/K
302.79 K, 22448 kPa, Liquid | 0.06525 ± 0.0014 W/m/K
302.8 K, 22443 kPa, Liquid | 0.06527 ± 0.0014 W/m/K
302.85 K, 95 kPa, Liquid | 0.05658 ± 0.0012 W/m/K
302.86 K, 96 kPa, Liquid | 0.05645 ± 0.0012 W/m/K
303.01 K, 36 kPa, Gas | 0.01199 ± 0.00081 W/m/K
303.02 K, 38 kPa, Gas | 0.01194 ± 0.00085 W/m/K
303.03 K, 35 kPa, Gas | 0.01196 ± 0.00078 W/m/K
303.04 K, 68537 kPa, Liquid | 0.07796 ± 0.0016 W/m/K
303.04 K, 68564 kPa, Liquid | 0.07806 ± 0.0016 W/m/K
303.07 K, 15868 kPa, Liquid | 0.06292 ± 0.0013 W/m/K
303.07 K, 15869 kPa, Liquid | 0.06282 ± 0.0013 W/m/K
303.1 K, 58422 kPa, Liquid | 0.07541 ± 0.0015 W/m/K
303.1 K, 58439 kPa, Liquid | 0.07546 ± 0.0015 W/m/K
303.11 K, 68765 kPa, Liquid | 0.07805 ± 0.0016 W/m/K
303.11 K, 68772 kPa, Liquid | 0.07794 ± 0.0016 W/m/K
303.16 K, 48157 kPa, Liquid | 0.07292 ± 0.0015 W/m/K
303.17 K, 48152 kPa, Liquid | 0.07285 ± 0.0015 W/m/K
303.2 K, 15974 kPa, Liquid | 0.06276 ± 0.0013 W/m/K
303.2 K, 15979 kPa, Liquid | 0.06281 ± 0.0013 W/m/K
303.22 K, 38643 kPa, Liquid | 0.07047 ± 0.0014 W/m/K
303.23 K, 38644 kPa, Liquid | 0.0705 ± 0.0014 W/m/K
303.29 K, 9716 kPa, Liquid | 0.06072 ± 0.0013 W/m/K
303.29 K, 9741 kPa, Liquid | 0.06069 ± 0.0013 W/m/K
303.3 K, 29978 kPa, Liquid | 0.06778 ± 0.0014 W/m/K
303.3 K, 29993 kPa, Liquid | 0.06773 ± 0.0014 W/m/K
